The target in one experiment is T1, human PI3Kα protein (Homo sapiens, UniProt P42336).
T1 construct: purchased Carna Biosciences, Inc; host or cells: baculovirus expression system
Put plainly: PI3Kα enzyme assay (ADP-Glo). In kind it is biochemical. Particulars: read-out: PI3Kα enzyme inhibitory activity. The gist of the method:
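Biotinylated human PI3Kα (baculovirus-expressed, 4.5 nmol/L) pre-incubated 15 min with compound in Tris-HCl pH 7.5, MgCl2, BSA; reaction 60 min at 25° C with 50 μmol/L PIP2 and 100 μmol/L ATP final. ADP quantified by ADP-Glo luminescence; IC50 calculated.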
Background: ADP-Glo turns the ADP formed in a reaction into a luminescent signal.

Experiment [1] has as its target T2, GST fusion human ERK2 protein (Homo sapiens, UniProt P28482).
T2 construct: purchased Carna Biosciences, Inc; host or cells: E. coli expression system
Put plainly: ERK2 enzyme assay (1). The format is biochemical. Particulars: read-out: ERK2 enzyme inhibitory activity (1). The procedure, abridged: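 Enzyme (2.5 nmol/L, E. coli-expressed) preincubated with compound 15 min at room temperature in HEPES/MgCl2/DTT/Brij35 buffer, pH 7.5; reaction with 4.25 μmol/L FL-Peptide 8 and 43.1 μmol/L ATP for 120 min at 25 °C. Phosphorylated peptide fraction quantified by mobility-shift separation after EDTA stop; IC50 calculated.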

Results on 40 compounds are retold here after patent US9783536B2, “Nitrogen-containing heterocyclic compound or salt thereof” (FUJIFILM Corporation, priority 2013, dated 2017).

Structures are written as SMILES. Read-outs that look alike come from different tables or passages of the source.

T2 sequence (P28482 whole entry, the tested form may be a part): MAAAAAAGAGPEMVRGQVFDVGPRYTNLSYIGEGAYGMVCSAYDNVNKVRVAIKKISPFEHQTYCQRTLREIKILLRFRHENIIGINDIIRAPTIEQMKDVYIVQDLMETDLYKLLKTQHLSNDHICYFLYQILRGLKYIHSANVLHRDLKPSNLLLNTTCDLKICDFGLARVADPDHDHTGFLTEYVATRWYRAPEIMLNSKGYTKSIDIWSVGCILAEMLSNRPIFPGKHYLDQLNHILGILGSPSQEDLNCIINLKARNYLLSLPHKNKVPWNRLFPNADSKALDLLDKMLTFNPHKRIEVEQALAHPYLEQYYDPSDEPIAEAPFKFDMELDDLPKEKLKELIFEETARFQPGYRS
T1 sequence (P42336 whole entry): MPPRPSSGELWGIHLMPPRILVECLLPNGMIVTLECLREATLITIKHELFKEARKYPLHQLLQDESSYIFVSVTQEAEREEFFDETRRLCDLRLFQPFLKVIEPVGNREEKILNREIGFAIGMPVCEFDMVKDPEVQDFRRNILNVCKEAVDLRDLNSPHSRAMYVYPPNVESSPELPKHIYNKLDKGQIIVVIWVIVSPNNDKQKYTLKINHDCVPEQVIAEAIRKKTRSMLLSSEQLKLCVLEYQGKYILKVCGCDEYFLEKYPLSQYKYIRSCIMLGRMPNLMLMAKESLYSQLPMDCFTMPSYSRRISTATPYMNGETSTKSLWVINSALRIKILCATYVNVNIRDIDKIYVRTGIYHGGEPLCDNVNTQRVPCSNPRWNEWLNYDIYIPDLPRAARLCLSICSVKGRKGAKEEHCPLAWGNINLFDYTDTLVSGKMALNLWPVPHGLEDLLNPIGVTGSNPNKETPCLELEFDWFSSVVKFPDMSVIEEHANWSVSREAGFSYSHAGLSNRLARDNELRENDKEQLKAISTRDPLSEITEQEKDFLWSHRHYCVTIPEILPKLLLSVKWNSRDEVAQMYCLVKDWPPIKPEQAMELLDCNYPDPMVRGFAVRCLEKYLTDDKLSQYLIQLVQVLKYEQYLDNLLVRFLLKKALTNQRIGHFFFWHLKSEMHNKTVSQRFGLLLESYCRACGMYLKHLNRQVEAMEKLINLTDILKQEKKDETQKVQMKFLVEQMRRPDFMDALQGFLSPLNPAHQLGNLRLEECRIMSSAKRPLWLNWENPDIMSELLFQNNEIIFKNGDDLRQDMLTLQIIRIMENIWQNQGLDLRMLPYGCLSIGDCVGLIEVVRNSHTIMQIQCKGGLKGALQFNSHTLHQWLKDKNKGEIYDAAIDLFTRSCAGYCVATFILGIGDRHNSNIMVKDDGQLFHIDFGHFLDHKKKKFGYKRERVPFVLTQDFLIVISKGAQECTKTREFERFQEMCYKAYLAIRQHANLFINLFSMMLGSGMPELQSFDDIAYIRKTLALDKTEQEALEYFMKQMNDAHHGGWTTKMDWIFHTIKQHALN
T1 sequence (P27986 whole entry partner): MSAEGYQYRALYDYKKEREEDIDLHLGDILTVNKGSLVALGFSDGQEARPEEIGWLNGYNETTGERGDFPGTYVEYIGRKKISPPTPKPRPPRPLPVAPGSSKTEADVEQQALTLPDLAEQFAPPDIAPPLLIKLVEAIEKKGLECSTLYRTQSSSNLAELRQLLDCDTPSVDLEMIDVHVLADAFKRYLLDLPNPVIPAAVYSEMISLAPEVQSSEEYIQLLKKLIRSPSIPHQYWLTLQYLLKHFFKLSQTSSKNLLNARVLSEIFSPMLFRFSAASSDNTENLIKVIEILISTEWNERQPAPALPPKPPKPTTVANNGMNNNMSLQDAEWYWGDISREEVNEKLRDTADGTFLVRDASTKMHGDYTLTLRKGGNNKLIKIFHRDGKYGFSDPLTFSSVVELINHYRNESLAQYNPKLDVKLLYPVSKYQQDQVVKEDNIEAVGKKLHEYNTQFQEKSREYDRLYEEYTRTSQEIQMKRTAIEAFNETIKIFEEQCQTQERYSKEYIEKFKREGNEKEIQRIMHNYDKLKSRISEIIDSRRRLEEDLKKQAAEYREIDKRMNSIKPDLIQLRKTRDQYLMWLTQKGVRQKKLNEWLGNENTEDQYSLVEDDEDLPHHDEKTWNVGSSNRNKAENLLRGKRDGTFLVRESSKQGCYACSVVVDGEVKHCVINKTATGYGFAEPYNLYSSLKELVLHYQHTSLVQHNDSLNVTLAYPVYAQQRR

On to `c1ccc(Nc2cnc3ccc(Nc4nnc(C5CCCC5)s4)nc3c2)cc1` [Example 0200, N^2-(5-cyclopentyl-1,3,4-thiadiazol-2-yl)-N^7-phenyl-1,5-naphthyridine-2,7-diamine], for which the IC50 fell in the range of 1000 to 10000 nM on human PI3Kα protein (4.5 nmol/L PI3Kα, PIP2 50 μmol/L, ATP 100 μmol/L) and 1000 to 10000 nM in experiment [1] (2.5 nmol/L ERK2, ATP 43.1 μmol/L).
On to `c1n[nH]cc1-c1cnc2ccc(Nc3nnc(C4CCCC4)s3)nc2c1` [Example 0201], for which the IC50 on human PI3Kα protein was 1000 to 10000 nM; in experiment [1] (ERK2 enzyme assay (1)), below 1000 nM.
Turning to `COc1cc(-c2cnc3ccc(Nc4nnc(C5CCCC5)s4)nc3c2)ccc1O` [Example 0202], the IC50 is 10000 to 50000 nM on human PI3Kα protein and below 1000 nM in experiment [1] (ERK2 enzyme assay (1)).
`CCC1=C(OC)C(OC)=CC(Nc2cnc3ccc(Nc4nnc(C5CCCC5)s4)nc3c2)C1` (centres unmarked) [Example 0205]: the IC50 (on human PI3Kα protein; in experiment [1] (ERK2 enzyme assay (1))) was below 1000 nM each time.
Regarding `c1ccc(Nc2cnc3ccc(Nc4nnc(C5CCCC5)s4)nc3c2)nc1` [Example 0206], the IC50 on human PI3Kα protein was 10000 to 50000 nM; in experiment [1] (ERK2 enzyme assay (1)), below 1000 nM.
As for `c1cncc(Nc2cnc3ccc(Nc4nnc(C5CCCC5)s4)nc3c2)c1` [Example 0207], the IC50 (on human PI3Kα protein; in experiment [1] (ERK2 enzyme assay (1))) was below 1000 nM each time.
Consider `c1cc(Nc2cnc3ccc(Nc4nnc(C5CCCC5)s4)nc3c2)ccn1` [Example 0208], for which the IC50 (at human PI3Kα protein; in experiment [1] (ERK2 enzyme assay (1))) was below 1000 nM each time.
Consider `c1cnc(Nc2cnc3ccc(Nc4nnc(C5CCCC5)s4)nc3c2)cn1` [Example 0209], for which the IC50 (at human PI3Kα protein; in experiment [1] (ERK2 enzyme assay (1))) was below 1000 nM each time.
In the case of `c1cc(Nc2cnc3ccc(Nc4nnc(C5CCCC5)s4)nc3c2)ncn1` [Example 0210], the IC50 (on human PI3Kα protein; in experiment [1] (ERK2 enzyme assay (1))) was below 1000 nM each time.
For `COc1ccccc1Nc1cnc2ccc(Nc3nnc(C4CCCC4)s3)nc2c1` [Example 0219, N^2-(5-cyclopentyl-1,3,4-thiadiazol-2-yl)-N^7-(2-methoxyphenyl)-1,5-naphthyridine-2,7-diamine], the IC50 on human PI3Kα protein is 10000 to 50000 nM; in experiment [1] (ERK2 enzyme assay (1)), 1000 to 10000 nM.
For `COc1cccc(Nc2cnc3ccc(Nc4nnc(C5CCCC5)s4)nc3c2)c1` [Example 0220, N^2-(5-cyclopentyl-1,3,4-thiadiazol-2-yl)-N^7-(3-methoxyphenyl)-1,5-naphthyridine-2,7-diamine], the IC50 at human PI3Kα protein was below 1000 nM; in experiment [1] (ERK2 enzyme assay (1)), 1000 to 10000 nM.
For `c1cc(Nc2cnc3ccc(Nc4nnc(C5CCCC5)s4)nc3c2)ccc1CN1CCOCC1` [Example 0221, N^2-(5-cyclopentyl-1,3,4-thiadiazol-2-yl)-N^7-(4-(morpholinomethyl)phenyl)-1,5-naphthyridine-2,7-diamine], in that order: below 1000 nM and below 1000 nM.
For `c1n[nH]cc1Nc1cnc2ccc(Nc3nnc(C4CCCCC4)s3)nc2c1` [Example 0223], in that order: 1000 to 10000 nM and below 1000 nM.
As to `c1cnnc(Nc2cnc3ccc(Nc4nnc(C5CCCC5)s4)nc3c2)c1` [Example 0224, N^2-(5-cyclopentyl-1,3,4-thiadiazol-2-yl)-N^7-(pyridazin-3-yl)-1,5-naphthyridine-2,7-diamine], the IC50 (on human PI3Kα protein; in experiment [1] (ERK2 enzyme assay (1))) was below 1000 nM in each case.
On to `c1n[nH]cc1Nc1cnc2ccc(Nc3nnc(N4CCOCC4)s3)nc2c1` [Example 0225, N^2-(5-morpholino-1,3,4-thiadiazol-2-yl)-N^7-(1H-pyrazol-4-yl)-1,5-naphthyridine-2,7-diamine], for which the IC50 was 1000 to 10000 nM at human PI3Kα protein and below 1000 nM in experiment [1] (ERK2 enzyme assay (1)).
The matching figures for `c1n[nH]cc1Nc1cnc2ccc(Nc3nnc(C4CCCO4)s3)nc2c1` (centres unmarked) [Example 0228]: below 1000 nM and below 1000 nM.
Consider `Cc1cc(-c2cnc3ccc(Nc4cc(C(C)C)cnn4)nc3c2)ccn1` [Example 0229], for which the IC50 (on human PI3Kα protein; in experiment [1] (ERK2 enzyme assay (1))) was below 1000 nM each time.
As to `c1nc2ccc(Nc3nnc(CC4CCCC4)s3)nc2cc1-c1cnn(CCCN2CCCC2)c1` [Example 0234], the IC50 (on human PI3Kα protein; in experiment [1] (ERK2 enzyme assay (1))) was below 1000 nM each time.
As to `OCc1nnc(Nc2ccc3ncc(-c4cnn(CCCN5CCCC5)c4)cc3n2)s1` [Example 0239, (5-((7-(1-(3-(Pyrrolidin-1-yl)propyl)-1H-pyrazol-4-yl)-1,5-naphthyridin-2-yl)amino)-1,3,4-thiadiazol-2-yl)methanol], the IC50 (on human PI3Kα protein; in experiment [1] (ERK2 enzyme assay (1))) was below 1000 nM each time.
In the case of `c1nc2ccc(Nc3nnc(C4CCCCO4)s3)nc2cc1-c1cnn(CCCN2CCCC2)c1` (centres unmarked) [Example 0244, N-(7-(1-(3-(pyrrolidin-1-yl)propyl)-1H-pyrazol-4-yl)-1,5-naphthyridin-2-yl)-5-(tetrahydro-2H-pyran-2-yl)-1,3,4-thiadiazole-2-amine], the IC50 (on human PI3Kα protein; in experiment [1] (ERK2 enzyme assay (1))) was below 1000 nM throughout.
Regarding `CNc1nnc(Nc2ccc3ncc(-c4cnn(CCN5CCOCC5)c4)cc3n2)s1` [Example 0249, N^2-methyl-N^5-(7-(1-(2-morpholinoethyl)-1H-pyrazol-4-yl)-1,5-naphthyridin-2-yl)-1,3,4-thiadiazole-2,5-diamine], the IC50 (at human PI3Kα protein; in experiment [1] (ERK2 enzyme assay (1))) was below 1000 nM throughout.
Turning to `Nc1nnc(Nc2ccc3ncc(-c4cnn(CCN5CCOCC5)c4)cc3n2)s1` [Example 0254, N^2-(7-(1-(2-morpholinoethyl)-1H-pyrazol-4-yl)-1,5-naphthyridin-2-yl)-1,3,4-thiadiazole-2,5-diamine], the IC50 (at human PI3Kα protein; in experiment [1] (ERK2 enzyme assay (1))) was below 1000 nM throughout.
On to `c1nc2ccc(Nc3nnc(CN4CCOCC4)s3)nc2cc1-c1cnn(CCCN2CCCC2)c1` [Example 0255, 5-(morpholinomethyl)-N-(7-(1-(3-(pyrrolidin-1-yl)propyl)-1H-pyrazol-4-yl)-1,5-naphthyridin-2-yl)-1,3,4-thiadiazole-2-amine], for which the IC50 at human PI3Kα protein was 1000 to 10000 nM; in experiment [1] (ERK2 enzyme assay (1)), below 1000 nM.
For `c1nc2ccc(Nc3nnc(CC4CC4)s3)nc2cc1-c1cnn(CCCN2CCCC2)c1` [Example 0256, 5-(Cyclopropylmethyl)-N-(7-(1-(3-(pyrrolidin-1-yl)propyl)-1H-pyrazol-4-yl)-1,5-naphthyridin-2-yl)-1,3,4-thiadiazole-2-amine], in that order: below 1000 nM and below 1000 nM.
For the compound `CC(O)c1nnc(Nc2ccc3ncc(-c4cnn(CCCN5CCCC5)c4)cc3n2)s1` (centres unmarked) [Example 0259], the IC50 (on human PI3Kα protein; in experiment [1] (ERK2 enzyme assay (1))) was below 1000 nM throughout.
In the case of `CC(C)(O)Cc1nnc(Nc2ccc3ncc(-c4cnn(CCCN5CCCC5)c4)cc3n2)s1` [Example 0260], the IC50 (on human PI3Kα protein; in experiment [1] (ERK2 enzyme assay (1))) was below 1000 nM throughout.
`CCC(C)c1nnc(Nc2ccc3ncc(-c4cnn(CCCN5CCCC5)c4)cc3n2)s1` (centres unmarked) [Example 0263]: the IC50 (on human PI3Kα protein; in experiment [1] (ERK2 enzyme assay (1))) was below 1000 nM in each case.
Regarding `CC(C)c1nnc(Nc2ccc3nccc(-c4ccccc4)c3n2)s1` [Example 0264, 5-isopropyl-N-(8-phenyl-1,5-naphthyridin-2-yl)-1,3,4-thiadiazole-2-amine], the IC50 is 1000 to 10000 nM at human PI3Kα protein and below 1000 nM in experiment [1] (ERK2 enzyme assay (1)).
On to `CC(C)c1nnc(Nc2ccc3nccc(-c4cccnc4)c3n2)s1` [Example 0268, 5-isopropyl-N-(8-(pyridin-3-yl)-1,5-naphthyridin-2-yl)-1,3,4-thiadiazole-2-amine], for which the IC50 (at human PI3Kα protein; in experiment [1] (ERK2 enzyme assay (1))) was below 1000 nM in each case.
For `CC(C)c1nnc(Nc2ccc3nccc(-c4ccncc4)c3n2)s1` [Example 0269, 5-isopropyl-N-(8-(pyridin-4-yl)-1,5-naphthyridin-2-yl)-1,3,4-thiadiazole-2-amine], the IC50 (on human PI3Kα protein; in experiment [1] (ERK2 enzyme assay (1))) was below 1000 nM throughout.
In the case of `COc1ccccc1-c1ccnc2ccc(Nc3nnc(C(C)C)s3)nc12` [Example 0270], the IC50 (on human PI3Kα protein; in experiment [1] (ERK2 enzyme assay (1))) was below 1000 nM throughout.
On to `COc1ccc(-c2ccnc3ccc(Nc4nnc(C(C)C)s4)nc23)cc1` [Example 0272], for which the IC50 was 1000 to 10000 nM on human PI3Kα protein and below 1000 nM in experiment [1] (ERK2 enzyme assay (1)).
For the compound `CC(C)c1nnc(Nc2ccc3nccc(-c4cnn(C)c4)c3n2)s1` [Example 0273], the IC50 (on human PI3Kα protein; in experiment [1] (ERK2 enzyme assay (1))) was below 1000 nM throughout.
For `CC(C)c1nnc(Nc2ccc3nccc(-c4cnn(CCN5CCOCC5)c4)c3n2)s1` [Example 0274], the IC50 on human PI3Kα protein was below 1000 nM; in experiment [1] (ERK2 enzyme assay (1)) it was 1000 to 10000 nM.
Regarding `c1cc(-c2ccnc3ccc(Nc4nncs4)nc23)ccn1` [Example 0275], the IC50 (on human PI3Kα protein; in experiment [1] (ERK2 enzyme assay (1))) was below 1000 nM throughout.
As for `Cc1cc(Nc2ccc3ncc(-c4cnn(C)c4)cc3n2)n[nH]1` [Example 0277, N-(5-methyl-1H-pyrazol-3-yl)-7-(1-methyl-1H-pyrazol-4-yl)-1,5-naphthyridine-2-amine], the IC50 (at human PI3Kα protein; in experiment [1] (ERK2 enzyme assay (1))) was 1000 to 10000 nM each time.
Take `CC(C)c1nnc(Nc2ccc3nccc(-c4cncnc4)c3n2)s1` [Example 0278, 5-isopropyl-N-(8-(pyrimidin-5-yl)-1,5-naphthyridin-2-yl)-1,3,4-thiadiazole-2-amine]: the IC50 (on human PI3Kα protein; in experiment [1] (ERK2 enzyme assay (1))) was below 1000 nM in each case.
As for `COc1cnccc1-c1ccnc2ccc(Nc3nnc(C(C)C)s3)nc12` [Example 0279], the IC50 (at human PI3Kα protein; in experiment [1] (ERK2 enzyme assay (1))) was below 1000 nM in each case.
Turning to `COc1cc(-c2ccnc3ccc(Nc4nnc(C(C)C)s4)nc23)ccn1` [Example 0280], the IC50 at human PI3Kα protein lay in the range of 10000 to 50000 nM; in experiment [1] (ERK2 enzyme assay (1)), 1000 to 10000 nM.
The matching figures for `CC(C)c1nnc(Nc2ccc3nccc(-c4ccccn4)c3n2)s1` [Example 0281, 5-isopropyl-N-(8-(pyridin-2-yl)-1,5-naphthyridin-2-yl)-1,3,4-thiadiazole-2-amine]: 1000 to 10000 nM and 1000 to 10000 nM.
